Here are results for 3 molecules from ChEMBL document CHEMBL1201862, “PubChem BioAssay data set” (2004).

SMILES strings stand for the structures. Active and inactive are the calls of the source.

The target in assay [1] is T1, Sentrin-specific protease 8 (Homo sapiens, UniProt Q96LD8).
T1 sequence (Q96LD8 whole entry): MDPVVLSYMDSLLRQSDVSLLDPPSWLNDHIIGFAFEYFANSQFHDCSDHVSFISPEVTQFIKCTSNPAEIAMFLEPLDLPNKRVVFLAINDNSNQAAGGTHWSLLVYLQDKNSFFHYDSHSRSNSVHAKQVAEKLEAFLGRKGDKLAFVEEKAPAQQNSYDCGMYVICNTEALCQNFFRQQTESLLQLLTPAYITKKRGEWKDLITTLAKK
The assay is described as follows: SENP8 protease inhibitors, SAR follow-up, biochemical, luminescence, set 2 (AID 588601). Type of assay: functional.

Assay [2] concerns the target T2, Sentrin-specific protease 6 (Homo sapiens, UniProt Q9GZR1).
T2 sequence (Q9GZR1 whole entry): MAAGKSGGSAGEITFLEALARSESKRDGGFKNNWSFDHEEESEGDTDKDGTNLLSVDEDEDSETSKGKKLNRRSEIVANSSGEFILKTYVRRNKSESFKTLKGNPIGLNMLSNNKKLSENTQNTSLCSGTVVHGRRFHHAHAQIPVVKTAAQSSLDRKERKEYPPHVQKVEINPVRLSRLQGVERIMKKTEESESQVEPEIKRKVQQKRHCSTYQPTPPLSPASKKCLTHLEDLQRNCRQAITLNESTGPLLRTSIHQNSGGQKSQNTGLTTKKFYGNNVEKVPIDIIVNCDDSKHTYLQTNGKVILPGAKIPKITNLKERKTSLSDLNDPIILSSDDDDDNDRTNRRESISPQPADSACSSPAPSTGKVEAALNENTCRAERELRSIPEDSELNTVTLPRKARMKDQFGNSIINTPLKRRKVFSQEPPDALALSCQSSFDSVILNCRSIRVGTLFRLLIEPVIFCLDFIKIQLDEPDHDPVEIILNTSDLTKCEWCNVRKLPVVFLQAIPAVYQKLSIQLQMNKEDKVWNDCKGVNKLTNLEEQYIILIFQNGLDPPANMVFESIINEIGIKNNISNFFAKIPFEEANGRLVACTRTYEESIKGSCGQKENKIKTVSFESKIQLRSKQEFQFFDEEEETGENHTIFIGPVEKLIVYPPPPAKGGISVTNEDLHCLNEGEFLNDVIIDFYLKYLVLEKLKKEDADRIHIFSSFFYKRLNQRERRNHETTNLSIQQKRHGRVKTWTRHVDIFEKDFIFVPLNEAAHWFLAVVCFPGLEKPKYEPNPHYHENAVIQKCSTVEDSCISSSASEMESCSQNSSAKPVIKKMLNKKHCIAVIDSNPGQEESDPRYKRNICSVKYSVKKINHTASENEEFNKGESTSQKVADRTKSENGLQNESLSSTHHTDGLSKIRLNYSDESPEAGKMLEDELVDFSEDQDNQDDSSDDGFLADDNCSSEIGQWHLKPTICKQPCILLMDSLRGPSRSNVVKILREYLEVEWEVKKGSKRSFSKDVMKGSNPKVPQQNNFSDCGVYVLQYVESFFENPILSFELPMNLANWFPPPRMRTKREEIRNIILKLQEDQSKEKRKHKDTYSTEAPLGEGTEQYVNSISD
Description: SAR Analysis of small molecule inhibitors of Sentrin-specific protease 6 (SENP6) using a Luminescent assay. [Related pubchem assays (depositor defined):AID2582, AID2599]. It counts as functional.

The target in assay [3] is T1, Sentrin-specific protease 8. The assay is described as follows: SENP8 protease inhibitors, SAR follow-up, biochemical, luminescence (AID 504501). It counts as functional.
For assay [4], the target named is T3, Caspase-3 (Homo sapiens, UniProt P42574).
T3 sequence (P42574 whole entry): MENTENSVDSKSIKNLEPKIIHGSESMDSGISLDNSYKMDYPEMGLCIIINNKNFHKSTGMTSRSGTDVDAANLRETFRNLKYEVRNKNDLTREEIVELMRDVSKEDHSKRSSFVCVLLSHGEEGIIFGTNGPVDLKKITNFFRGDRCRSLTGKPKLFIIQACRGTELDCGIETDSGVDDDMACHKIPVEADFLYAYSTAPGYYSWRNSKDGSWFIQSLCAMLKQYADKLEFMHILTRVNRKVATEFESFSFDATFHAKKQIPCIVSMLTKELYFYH
Description: caspase-3 inhibitors as off-family protease, SAR follow-up, selectivity assay for SENP protease inhibitor project, biochemical, luminescence, set 2 (AID 588599). It counts as functional.

The target of assay [5] is T3, Caspase-3. Description: SAR Analysis of small molecule inhibitors of Sentrin-specific proteases (SENPs) using a Caspase-3 Selectivity assay. [Related pubchem assays (depositor defined):AID2540, AID2599, AID434973, AID489001]. Type of assay: functional.
Assay [6] deals with T4, Sentrin-specific protease 7 (Homo sapiens, UniProt Q9BQF6).
T4 sequence (Q9BQF6 whole entry): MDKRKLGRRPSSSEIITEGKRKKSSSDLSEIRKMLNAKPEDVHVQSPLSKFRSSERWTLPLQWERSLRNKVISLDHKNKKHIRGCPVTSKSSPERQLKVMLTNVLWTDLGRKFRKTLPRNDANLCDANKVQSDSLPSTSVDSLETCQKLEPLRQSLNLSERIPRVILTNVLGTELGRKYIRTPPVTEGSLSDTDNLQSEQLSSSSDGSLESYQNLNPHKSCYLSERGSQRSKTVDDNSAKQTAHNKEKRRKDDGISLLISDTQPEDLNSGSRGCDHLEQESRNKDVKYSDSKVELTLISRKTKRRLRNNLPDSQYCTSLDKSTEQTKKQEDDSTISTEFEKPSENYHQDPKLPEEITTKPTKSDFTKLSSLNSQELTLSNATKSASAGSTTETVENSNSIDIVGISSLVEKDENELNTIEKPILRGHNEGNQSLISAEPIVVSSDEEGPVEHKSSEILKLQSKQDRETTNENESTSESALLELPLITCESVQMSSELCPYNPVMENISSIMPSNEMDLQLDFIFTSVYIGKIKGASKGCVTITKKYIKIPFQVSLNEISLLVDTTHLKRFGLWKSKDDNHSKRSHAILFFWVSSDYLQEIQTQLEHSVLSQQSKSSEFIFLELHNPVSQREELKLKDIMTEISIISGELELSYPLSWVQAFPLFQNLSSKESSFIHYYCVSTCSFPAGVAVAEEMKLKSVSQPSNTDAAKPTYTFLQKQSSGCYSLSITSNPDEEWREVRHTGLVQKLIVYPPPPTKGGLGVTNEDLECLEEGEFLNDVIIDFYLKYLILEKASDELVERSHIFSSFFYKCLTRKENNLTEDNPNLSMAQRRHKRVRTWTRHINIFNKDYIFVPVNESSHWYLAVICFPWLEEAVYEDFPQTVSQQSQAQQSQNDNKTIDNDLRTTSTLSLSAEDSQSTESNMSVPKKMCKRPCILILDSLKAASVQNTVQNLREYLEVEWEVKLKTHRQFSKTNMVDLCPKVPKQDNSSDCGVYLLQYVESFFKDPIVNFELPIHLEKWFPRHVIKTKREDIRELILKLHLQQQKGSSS
Description: SENP7 protease inhibitors, SAR follow-up, biochemical, luminescence (AID 504497). Type of assay: functional.

For assay [7], the target named is T4, Sentrin-specific protease 7. Description: SENP7 protease inhibitors, SAR follow-up, biochemical, luminescence, set 2 (AID 588600). Type of assay: functional.
The nature of assay [8]: NIH-3T3 fibroblast cytotoxicity, dose response, cytotoxicity control, cell-based, fluorescence, Alamar Blue, secondary assay (AID 2327).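 Also: NIH-3T3 mouse fibroblasts cultured with fluconazole at 8 µg/mL.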 Type of assay: functional. For orientation: The colour change of resazurin is a common sign of viable cells or microbes.
The subject of assay [9] is BJ. Description: cytotoxicity toward BJ-TERT-LT-ST fibroblasts, dose response, cell-based, RAS-independent, luminescence (AID 1935).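 Also: BJ fibroblasts immortalized with TERT plus LT and ST oncogenes.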 It counts as functional. To be noted: Homo sapiens.
A short description of assay [10]: cells. Type of assay: functional, cell-based.
The nature of assay [11]: cytotoxicity in MIN6 insulinoma cells, dose response, cytotoxicity control, cell-based, mouse insulinoma (AID 2122).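 Also: confirmatory high-throughput counterscreen run to flag cytotoxic compounds; mouse MIN-6 beta cells carrying an insulin promoter eGFP reporter.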 Type of assay: functional.
Assay [12] is described as follows: inhibitors of SNCA 5'UTR-driven reporter translation, confirmation, H4 neuroglioma cells, luminescence (AID 1988). Type of assay: functional, cell-based.
Assay [13] deals with BJ. The assay is described as follows: cytotoxicity toward BJ-TERT fibroblasts, dose response, cell-based, RAS-independent, luminescence (AID 1933). The following applies: Homo sapiens. Type of assay: functional.
A short description of assay [14]: Luminescence Cell-Based Dose Response HTS to Identify Inhibitors of 5'UTR Stem-Loop Driven Prion Protein mRNA Translation in H4 Neuroglioblastoma Cells. [Related pubchem assays: 1827 (Project Summary), 1813 (Primary HTS)]. It counts as functional.
The nature of assay [15]: insulin promoter down-regulators in MIN6 cells, imaging, high-content screening, mouse beta cells (AID 1628). Type of assay: functional.
In assay [16] the test system is Vero. The assay is described as follows: host cell cytotoxicity of antiviral hits, dose response, cytotoxicity control for West Nile virus antiviral project, secondary assay (AID 1650). Type of assay: functional. To be noted: Chlorocebus sabaeus.
Assay [17] deals with Streptococcus sp. 'group A'. The assay is described as follows: growth inhibition of control SK(-) GAS strain, dose response, counter-screen for streptokinase expression inhibitor project, luminescence, kanamycin, BacTiterGlo, confirmation (AID 1900). Type of assay: functional, organism-based. Background: The purpose of a counterscreen is to sort out artefacts and off-target activity.

A short description of assay [18]: cells. It counts as functional, cell-based. The source holds these as a separate data set.
The subject of the next assay is Streptococcus. Description: Group A Streptococcus viability loss, dose response, counter-screen for streptokinase expression inhibitor project, luminescence, BacTiterGlo (AID 1915).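 Also: potency for reduction of bacterial viability or growth.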 It counts as functional, organism-based.
Assay [19] deals with BJ. The assay is described as follows: cells. Type of assay: functional, cell-based. The following applies: Homo sapiens.
In assay [20] the test system is Vero. The assay is described as follows: cells. It counts as functional. The following applies: Chlorocebus sabaeus.
Assay [21] can be described thus: inhibitors of firefly luciferase expression or activity, dose response, H4 neuroglioma cells, luminescence (AID 1990). It counts as functional, cell-based.
The test system of assay [22] is BJ. The assay is described as follows: cytotoxicity toward Ras-transformed BJeLR fibroblasts, dose response, cell-based, alamar blue fluorescence, cherrypicked samples (AID 2631).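 Also: confirmatory dose-response assay in RAS-dependent BJ fibroblasts engineered with TERT, LT and ST, with cytotoxicity read by fluorescence.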 It counts as functional. The following applies: Homo sapiens.
The nature of assay [23]: cytotoxicity toward DRD oncogenic fibroblasts, dose response, cell-based, non-viral oncogenic, luminescence (AID 1934). Type of assay: functional. The following applies: Homo sapiens.
Assay [24] addresses Latent membrane protein 1 (Human herpesvirus 4 (strain B95-8), UniProt P03230). The assay is described as follows: TES1-eGFP NF-kB reporter inhibition versus Tet-On dsRED, dose response, selectivity assay for LMP1 NF-kB inhibitor project, imaging, HEK293T, dual-color eGFP/dsRED, cherry-picks (AID 588398). It counts as functional, cell-based.
Assay [25] in a line: C. albicans growth with fluconazole, confirmation, fluorescence, retest (AID 2467). Type of assay: functional, cell-based.

Sequence of Latent membrane protein 1 (P03230 whole entry): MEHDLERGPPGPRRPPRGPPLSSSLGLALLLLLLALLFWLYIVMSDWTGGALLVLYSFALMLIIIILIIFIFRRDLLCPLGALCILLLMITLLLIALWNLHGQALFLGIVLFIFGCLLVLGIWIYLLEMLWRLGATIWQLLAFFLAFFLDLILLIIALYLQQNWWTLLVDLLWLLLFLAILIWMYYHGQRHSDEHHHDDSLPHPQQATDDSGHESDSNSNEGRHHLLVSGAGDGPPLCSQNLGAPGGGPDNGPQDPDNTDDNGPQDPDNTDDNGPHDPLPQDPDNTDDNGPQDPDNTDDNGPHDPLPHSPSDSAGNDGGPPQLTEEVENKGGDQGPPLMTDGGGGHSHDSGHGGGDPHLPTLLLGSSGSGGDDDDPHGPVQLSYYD

As for `Fc1ccc(-c2noc(/C=C/c3ccccc3)n2)cc1`, the half-inhibitory concentration (IC50) in [1] is 2.98 µM (active); in [2], > 99 µM (inactive); in assay [3] it was > 99 µM (inactive); at Caspase-3 [4], 20.5 µM (active); at Caspase-3 [5] it was 18 µM (active); in assay [6] it was 8.8 µM (active). The half-maximal inhibitory concentration (IC50) in assay [7] is 3.38 µM (active).
For the molecule `CN(C)CCN(C(=O)c1ccc(Cl)s1)c1nc2ccc(S(C)(=O)=O)cc2s1`, the IC50 (in assay [2]; in assay [3]; at Caspase-3 [5]; in assay [6]) was > 99 µM (inactive) throughout.
Take `CCN(CC)c1ccc(/C=N/Nc2nc3ccccc3[nH]2)c(O)c1`: the EC50 in assay [8] is 22.6 µM (inconclusive); in the assay on BJ [9] it was 1.37 µM (inconclusive); in “cells [10]”, 2.56 µM (active); in assay [12], 2.64 µM (active); with BJ [13] it was 1.22 µM (active); in assay [14], 8.71 µM (active). Further, the concentration giving a half-maximal response (EC50) in assay [17] was 4.47 µM (active); in “cells [18]” it was 115 µM (active); in the assay with Streptococcus, 7.8 µM (active); in the assay with BJ [19], 2.15 µM (active); in assay [21], 6.26 µM (active); in the assay on BJ [22], 0.571 µM (inconclusive). For the same molecule, the values for the EC50 in assay [23] and in [25] were 1.37 µM (inconclusive) and 1.42 µM (active), respectively. Moreover, the figures for the IC50 in assay [11] and in assay [15] were 2.51 µM (active) and 2.45 µM (active), respectively. Further, the CC50 is 2.03 µM (active) in the assay on Vero [16] and 1.59 µM (active) in the assay with Vero [20]. The AC50 in [24] was 17.4 µM (active).

As a reminder, the IC50 is the point on the concentration scale where inhibition reaches its midpoint. One may read the EC50 as the concentration at which the effect is half-maximal. The term CC50 denotes the concentration that lowers cell viability or growth by half. By AC50 is commonly meant the concentration at which the activity in the assay is half-maximal.
